Earlier results as cited in patent US20110286960A1, “CANCER THERAPY BY DOCETAXEL AND GRANULOCYTE COLONY-STIMULATING FACTOR (G-CSF)” (OPTIMATA LTD., priority 2008, published 2011).
Where two headings read alike, the source gives them in different places. Blank lines part the entries; values can stand above or below the molecule they belong to.

Assays:
[1] = Baker et al., 2004, mean ± STD
neutrophils [2] = details: for nadir of neutrophil level: human, in vivo
neutrophils [3] = details: G-CSF treatment one day post-chemotherapy
[4] = docetaxel clinical trial results (17, 28)

AUC ([1]; 35 mg/m^2): 1320 ± 420 ng·h/mL | Clearance ([1]; 35 mg/m^2): 29.10 ± 10.20 L/h*m^2 | Cmax ([1]; 35 mg/m^2): 1850 ± 730 ng/mL | Terminal half life ([1]; 35 mg/m^2): 15.60 ± 12.00 h | AUC ([1]; 100 mg/m^2): 5620 ± 2120 ng·h/mL | Clearance ([1]; 100 mg/m^2): 19.60 ± 5.60 L/h*m^2 | Cmax ([1]; 100 mg/m^2): 4150 ± 1350 ng/mL | Terminal half life ([1]; 100 mg/m^2): 17.20 ± 6.20 h | patients suffering grade 3/4 neutropenia (neutrophils [2]; 14 patients, weekly docetaxel 40-45 mg/m^2, three consecutive weeks in cycles of four weeks (38)): Half | nadir recorded on days (neutrophils [2]; [4]): 6 to 10 days | recovery to baseline recorded on days (neutrophils [2]; [4]): 16 to 22 days | neutropenia (neutrophils [2]; docetaxel dose up to 145 mg/m^2, as reported in (36)): acceptable neutropenia | patients suffering grade 3/4 neutropenia (neutrophils [2]; patients receiving 30-35 mg/m2/week (38)): none | docetaxel clearance, CYP3A-affected clinically observed range: 5.4-29.1 Uhr/m^2 | docetaxel clearance, observed range (CYP3A inter-individual variability (27)): 5.4-29.1 L/hr/m^2
Molecule: CC(=O)O[C@@]12CO[C@@H]1C[C@H](O)[C@@]1(C)C(=O)[C@H](O)C3=C(C)[C@@H](OC(=O)[C@H](O)[C@@H](NC(=O)OC(C)(C)C)c4ccccc4)C[C@@](O)([C@@H](OC(=O)c4ccccc4)[C@H]21)C3(C)C [Docetaxel]

nadir of neutrophil level (neutrophils [2]): 9 days
Molecule: CCc1c2c(nc3ccc(OC(=O)N4CCC(N5CCCCC5)CC4)cc13)-c1cc3c(c(=O)n1C2)COC(=O)[C@]3(O)CC [Irinotecan]

The remaining lines, values behind:

Molecule: CC[C@]12C=CCN3CC[C@@]4(c5cc([C@@]6(C(=O)OC)C[C@@H]7C[C@@H](C(C)(F)F)CN(Cc8c6[nH]c6ccccc86)C7)c(OC)cc5N(C)[C@H]4[C@@](O)(C(=O)OC)[C@@H]1OC(C)=O)[C@@H]32 [vinflunine]
nadir of neutrophil level (neutrophils [2]): 20 days

B1: G-CSF: Granulocyte Colony-Stimulating Factor, neutropenia alleviating support therapy (protein, UniProt P09919 31-207, looked up)
Granulocyte …: TPLGPASSLPQSFLLKCLEQVRKIQGDGAALQEKLVSECATYKLCHPEELVLLGHSLGIPWAPLSSCPSQALQLAGCLSQLHSGLFLYQGLLQALEGISPELGPTLDTLQLDVADFATTIWQQMEELGMAPALQPTQGAMPAFASAFQRRAGGVLVASHLQSFLEVSYRVLRHLAQP
grade 4 neutropenia reported (neutrophils [2]; G-CSF post-docetaxel, locally advanced breast cancer (10) or advanced NSCLC patients (11)): No grade 4 neutropenia | effect on neutropenia (neutrophils [3]): speeds up and aggravates neutropenia
